According to paper PMC8134483 (Scientific Reports, 2021):
Like-named read-outs stand apart in the source and are kept apart here.

Experiments:
[1] = system: male C57Bl/6 mice; assay: Catalepsy, ring holding assay; format: in vivo; conditions: 0.1–10 mg/kg i.p.; 5 min; % MPE 60 s
Method: (§1) Adult male C57BL/6 mice aged 6–10 weeks (mean weight 24 ± 0.5 g) were purchased from Charles River Labs (Senneville, QC). Animals were group housed (three per cage) with ad libitum access to food, water, and environmental enrichment and maintained on a 12 h light/dark cycle. Mice were randomly assigned to receive i.p. injections of vehicle (1:1:18 ethanol:emulphor:saline) or 0.1–10 mg/kg SCRA (n ≥ 4 per group). All protocols have been described previously and were in accordance with the guidelines detailed by the Canadian Council on Animal Care and approved by the Animal Research Ethics Board and the Scientific Merit Review Committee for Animal Behaviour at the University of Saskatchewan. […]
(§2) Modified tetrad testing (catalepsy, body temperature, tail flick assay) was conducted according to previously described methods, which are summarized briefly here. […] Catalepsy was assessed in the ring holding assay 5 min following injection with mouse forepaws clasped to a 5 mm ring positioned 5 cm above the surface of the testing space. The length of time the ring was held was recorded (s) to a maximum time of 60 s (i.e. MPE = 60 s). Internal body temperature was measured 15 min after injection. Anti-nociception was determined by assessing tail flick latency 20 min after injection. […]

[2] = system: male C57Bl/6 mice; assay: Anti-nociception, tail flick assay; format: in vivo; conditions: 0.1–10 mg/kg i.p.; 20 min; 52 °C; % MPE 20 s
Method: as §1, §2

[3] = system: male C57Bl/6 mice; assay: Internal body temperature; format: in vivo; conditions: 0.1–10 mg/kg i.p.; 15 min
Method: as §1, §2

[4] = target: T1, hCB2R (Homo sapiens, UniProt P34972); assay: [^3H]CP55,940 competition (radioligand displacement) binding to CB2R
T1 construct: host or cells: CHO-K1 (PathHunter)
T1 sequence (P34972 whole entry): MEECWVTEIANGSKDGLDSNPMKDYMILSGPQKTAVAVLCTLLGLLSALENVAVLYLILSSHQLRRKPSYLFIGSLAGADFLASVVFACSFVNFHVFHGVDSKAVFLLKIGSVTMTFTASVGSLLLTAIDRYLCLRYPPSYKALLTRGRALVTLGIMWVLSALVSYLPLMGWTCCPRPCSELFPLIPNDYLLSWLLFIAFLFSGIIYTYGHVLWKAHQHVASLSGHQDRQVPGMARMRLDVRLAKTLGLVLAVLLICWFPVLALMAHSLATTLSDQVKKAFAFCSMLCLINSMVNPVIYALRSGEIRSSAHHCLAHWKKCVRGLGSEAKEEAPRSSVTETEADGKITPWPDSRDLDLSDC

[5] = system: male C57Bl/6 mice; assay: Elevated plus maze (EPM); format: in vivo; conditions: 1.0 mg/kg i.p., 30 min after treatment, 5 min trial
Method: Adult male C57BL/6 mice aged 6–10 weeks (mean weight 24 ± 0.5 g) were purchased from Charles River Labs (Senneville, QC). Animals were group housed (three per cage) with ad libitum access to food, water, and environmental enrichment and maintained on a 12 h light/dark cycle. Mice were randomly assigned to receive i.p. injections of vehicle (1:1:18 ethanol:emulphor:saline) or 0.1–10 mg/kg SCRA (n ≥ 4 per group). All protocols have been described previously and were in accordance with the guidelines detailed by the Canadian Council on Animal Care and approved by the Animal Research Ethics Board and the Scientific Merit Review Committee for Animal Behaviour at the University of Saskatchewan. The following steps were taken to ensure our study was in keeping with the ARRIVE guidelines: (1) power analyses were conducted to determine the minimum number of animals required for the study; (2) animals were purchased—rather than bred—to limit animal waste; and (3) all assessments of animal behaviour were made by individuals blinded to the treatment group,[57].
EPM was conducted according to methods adapted from Marks et al.. The EPM was built from a plywood base painted blue with blue corrugated plastic floor and walls. The floor of the maze was composed of perpendicular interlocking arms (110 cm long × 10 cm wide) with two arms having 45 cm walls (closed arms) and two arms having no walls and a 0.5 cm edge (open arms), all elevated 45 cm from the ground. Trials began with the mouse in the central zone facing an open arm. Trials lasted 5 min and began 30 min after SCRA treatment. An arm entry was considered to be all four limbs leaving the central zone. Arm entries and the percent time spent in open versus closed arms were recorded by an observer blinded to the treatment group. Less time in the open arms and more time in the closed arms was used as a model of anxiogenic behaviour.

[6] = target: T2, hCB1R (Homo sapiens, UniProt P21554); assay: biochemical; format: binding
T2 construct: expressed in transfected cells; host or cells: CHO-K1
T2 sequence (P21554 whole entry): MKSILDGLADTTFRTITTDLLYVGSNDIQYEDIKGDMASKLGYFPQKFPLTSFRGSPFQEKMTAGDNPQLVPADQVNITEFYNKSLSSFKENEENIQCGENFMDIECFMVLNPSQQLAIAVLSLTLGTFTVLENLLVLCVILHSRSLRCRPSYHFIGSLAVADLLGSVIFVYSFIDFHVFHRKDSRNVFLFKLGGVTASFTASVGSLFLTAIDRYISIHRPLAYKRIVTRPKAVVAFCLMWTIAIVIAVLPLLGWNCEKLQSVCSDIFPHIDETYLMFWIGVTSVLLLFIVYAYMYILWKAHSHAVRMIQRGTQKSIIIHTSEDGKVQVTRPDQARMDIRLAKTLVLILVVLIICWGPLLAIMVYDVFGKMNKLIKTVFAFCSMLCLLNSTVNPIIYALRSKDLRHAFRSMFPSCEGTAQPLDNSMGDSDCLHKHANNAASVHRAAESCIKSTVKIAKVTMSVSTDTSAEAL

[7] = target: T2, hCB1R; assay: CB1R bias analysis (operational model, cAMP inhibition vs βarrestin2); format: cell-based; conditions: cAMP inhibition vs βarrestin2
Method: (§3) Estimates of Ki, EC50, Emin, and Emax were determined using non-linear regression with variable slope (four parameters) (GraphPad, Prism, v. 8.0). […] One-way analysis of variance (ANOVA), followed by Tukey’s post-hoc test, was used for statistical analyses (p < 0.05 determined to be significant); and Bartlett’s test was used to confirm homogeneity of variance (GraphPad).

[8] = target: T2, hCB1R; assay: cell-based; format: cell-based
[9] = target: T2, hCB1R; assay: cell-based; format: cell-based; remark: listed apart in the source
[10] = target: T1, hCB2R; assay: CB2R bias analysis (operational model, cAMP inhibition vs βarrestin2); format: cell-based; conditions: CP55,940 as reference agonist; >0 cAMP bias, <0 βarrestin2 bias
Method: as §3

[11] = target: T1, hCB2R; assay: HitHunter inhibition of FSK-stimulated cAMP, CB2R; format: cell-based
[12] = target: T1, hCB2R; assay: PathHunter βarrestin2 recruitment, CB2R; format: cell-based; conditions: for βarrestin2 recruitment to CB2R, activity in words: relative to CP55,940
[13] = bottom of the concentration–response curve, mean ± SEM

Q: Which Catalepsy response [1] does the source give for CC(C)CCn1cc(C(=O)c2ccc3ccccc3c2)c2ccccc21 [JWH 018 2'-naphthyl-N-(3-methylbutyl) isomer] here?
A: The Catalepsy response was “partial agonist”.

Q: And the “Anti-nociceptive response, tail flick” value [2]?
A: The value was “full agonist”.

Q: And the “Body temperature (hypothermia) response” value [3]?
A: Its value is “did not change body temperature”.

Q: What about the Ki [4] of the same compound?
A: The Ki was 7.5 nM.

Q: And the “CB2R [^3H]CP55,940 Emin” value [4, 13]?
A: Its value is 54 ± 3.5 %.

Q: What about the “EPM open arm entries” value [5] of the same compound?
A: Its value is “increased open arm entry”.

Q: What about the “EPM time in the open arms” value [5] of the same compound?
A: Its value is “greater amount of time spent in the open arms”.

Q: And the “EPM total arm entries” value ([5]; vs vehicle)?
A: Its value is “did not change total arm entries”.

Q: What about the Ki [6] of the same compound?
A: Its Ki is 0.93 nM.

Q: What about the “CB1R versus CB2R selectivity, receptor affinity” value ([6]; CB1R vs CB2R [^3H]CP55,940 binding) of the same compound?
A: Its value is “greater affinity at CB1R relative to CB2R”.

Q: What about the “CB1R [^3H]CP55,940 Emin” value [6, 13] of the same compound?
A: The value was 9.6 ± 2.7%.

Q: And the “Observed CB1R bias in cell culture” value [7]?
A: The value was “G protein”.

Q: What about the “CB1R versus CB2R selectivity, cAMP inhibition potency” value ([8]; CB1R vs CB2R) of the same compound?
A: The value was “more potent at CB2R relative to CB1R”.

Q: What about the EC50 ([8]; CHO hCB1R, 10 µM FSK, 90 min, value with 95% CI, read-out: CB1R cAMP Inhibition EC50) of the same compound?
A: Its EC50 is 98 nM.

Q: And the Emax ([8]; read-out: CB1R cAMP Inhibition Emax)?
A: Its Emax is 80 ± 9.1%.

Q: What about the EC50 ([9]; CHO hCB1R, 90 min, value with 95% CI, read-out: CB1R βarrestin2 recruitment EC50) of the same compound?
A: The EC50 was > 10000 nM.

Q: And the Emax ([9]; read-out: CB1R βarrestin2 recruitment Emax)?
A: The Emax was 4.9 ± 0.51%.

Q: What about the “βarrestin2 recruitment to CB1R, activity in words” value ([9]; relative to CP55940) of the same compound?
A: Its value is “Inactive at βarrestin2”.

Q: What about the “CB2R bias between cAMP inhibition and βarrestin2 recruitment, ∆∆LogR (cAMP—βarr2), in words” value [10] of the same compound?
A: The value was “obligate cAMP-biased ligands”.

Q: And the EC50 [11]?
A: The EC50 was 0.52 nM.

Q: What about the Emax [11] of the same compound?
A: Its Emax is 110 ± 9.2%.

Q: And the EC50 [12]?
A: Its EC50 is > 10000 nM.

Q: What about the Emax [12] of the same compound?
A: The Emax was 6.1 ± 1.3%.

Q: And the “βarrestin2 recruitment to CB2R, activity in words” value [12]?
A: The value was “Inactive at βarrestin2”.

Q: And the “βarrestin2 recruitment to CB2R, activity in words” value ([12]; listed as JWH 018 2′-napthyl-N-(3-methylbutyl) isomer)?
A: Its value is “inactive in βarrestin2”.
